How the values were obtained:
Assay type in all cases: in vivo
Echinocloa crus-galli [1] = assay: Herbicidal post-emergence action; conditions: post-emergence method, 80 g/ha
Summary of the method: (§1)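 Percent herbicidal effect (0% like control, 100% plants dead) was rated by eye roughly three weeks post-treatment. Treatment was a post-emergence spray of wettable-powder formulations at different doses, 600 l/ha water with 0.2% wetter, onto one-leaf-stage weeds and crops grown in greenhouse pots.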

Alopecurus myosuroides [2] = assay: Herbicidal post-emergence action; conditions: post-emergence method, 80 g/ha
Summary of the method: as §1

Setaria viridis [3] = assay: Herbicidal post-emergence action; conditions: post-emergence method, 80 g/ha
Summary of the method: as §1

Lolium multiflorum [4] = assay: Herbicidal post-emergence action; conditions: post-emergence method, 80 g/ha
Summary of the method: as §1

[5] = test system: monocotylidonous and dicotylidonous weed and crop plants; assay: Herbicidal post-emergence action (other test plants); conditions: post-emergence method, 80 g/ha
Summary of the method: as §1

Echinocloa crus-galli [6] = assay: Herbicidal pre-emergence action; conditions: pre-emergence method, 80 g/ha, greenhouse, visual assessment vs untreated controls
Text: (§2) Seeds of monocotylidonous and dicotylidonous weed and crop plants are placed in sandy loam in wood fibre pots and covered with soil. The test compounds, formulated in the form of wettable powders (WP), are then, as an aqueous suspension with a water application rate of 600 l/ha (converted), with 0.2% of wetting agent added, applied to the surface of the covering soil in different amounts.
(§3) After the treatment, the pots are placed in a greenhouse and kept under good growth conditions for the test plants. The visual assessment of the emergence damage on the test plants is carried out after a trial period of three weeks by comparison with the untreated controls (herbicidal effect in percent: 100% effect=the plants have died, 0% effect=like control plants).

Alopecurus myosuroides [7] = assay: Herbicidal pre-emergence action; conditions: pre-emergence method, 80 g/ha, greenhouse, visual assessment vs untreated controls
Text: as §2, §3

Setaria viridis [8] = assay: Herbicidal pre-emergence action; conditions: pre-emergence method, 80 g/ha, greenhouse, visual assessment vs untreated controls
Text: as §2, §3

Lolium multiflorum [9] = assay: Herbicidal pre-emergence action; conditions: pre-emergence method, 80 g/ha, greenhouse, visual assessment vs untreated controls
Text: as §2, §3

[10] = test system: monocotylidonous and dicotylidonous weed and crop plants; assay: Herbicidal pre-emergence action (other test plants); conditions: pre-emergence method, 80 g/ha, greenhouse, visual assessment vs untreated controls
Text: as §2, §3

Structure (SMILES) | herbicidal effect against ECHCG (Echinochloa crus-galli) (Echinocloa crus-galli [1]) [%] | herbicidal effect against ALOMY (Alopecurus myosuroides) (Alopecurus myosuroides [2]) [%] | herbicidal effect against SETVI (Setaria viridis) (Setaria viridis [3]) [%] | herbicidal effect against LOLMU (Lolium multiflorum) (Lolium multiflorum [4]) [%] | herbicidal effect against AVEFA (Avena fatua) [5] [%] | herbicidal effect ECHCG (Echinocloa crus-galli [6]) [%] | herbicidal effect ALOMY (Alopecurus myosuroides [7]) [%] | herbicidal effect SETVI (Setaria viridis [8]) [%] | herbicidal effect LOLMU (Lolium multiflorum [9]) [%] | herbicidal effect AVEFA [10] [%]
CCc1cc(C)cc(CC)c1C1=C(O)C2CC3(CC2C1=O)OCCS3 (mixture of isomers) [I-a-35] | 100 | 100 | 90 | 100 | 80 | 70 | 80 | 70 | 100 | 80
CCc1cc(C)cc(CC)c1C1=C(OC(=O)C(C)(C)C)C2CC3(CC2C1=O)OCCCS3 (mixture of isomers) [I-b-20] | 100 | 0 | 0 | 60 | 30 | 80 | 100 | 90 | 100 | 90
CCc1cc(C)cc(CC)c1C1=C(OC(=O)C(C)C)C2CC3(CC2C1=O)OCCS3 (mixture of isomers) [I-b-21] | 100 | 90 | 90 | 100 | 90 | 80 | 80 | 20 | 100 | 80
CCC(C)(C)C(=O)OC1=C(c2c(C)cc(C)cc2C)C(=O)C2CC3(COC(C)(C)O3)CC12 (mixture of isomers) [I-b-45] | 90 | 80 | 40 | 90 | 0 | 20 | 90 | 30 | 60 | 40
Cc1cc(C)c(C2=C(OC(=O)C(C)C)C3CC4(COC(C)(C)O4)CC3C2=O)c(C)c1 (mixture of isomers) [I-b-46] | 90 | 90 | 80 | 100 | 40 | 0 | 90 | 0 | 100 | 60
Cc1cc(C)c(C2=C(OC(=O)C(C)(C)C)C3CC4(COC(C)(C)O4)CC3C2=O)c(C)c1 (mixture of isomers) [I-b-48] | 90 | 90 | 80 | 90 | 40 | 0 | 80 | 0 | 70 | 20
CC(=O)OC1=C(c2c(C)cc(C)cc2C)C(=O)C2CC3(COC(C)(C)O3)CC12 (mixture of isomers) [I-b-49] | 100 | 90 | 60 | 100 | 80 | 50 | 90 | 0 | 70 | 70
Cc1cc(C)c(C2=C(OC(=O)C(C)(C)CCl)C3CC4(COC(C)(C)O4)CC3C2=O)c(C)c1 (mixture of isomers) [I-b-51] | 100 | 90 | 40 | 60 | 0 | 30 | 80 | 0 | 70 | 30
CCOC(=O)OC1=C(c2c(CC)cc(C)cc2CC)C(=O)C2CC3(CC12)OCC(C)O3 (mixture of isomers) [I-c-8] | 100 | 90 | 90 | 100 | 60 | 60 | 60 | 50 | 100 | 40
CCOC(=O)OC1=C(c2c(CC)cc(C)cc2CC)C(=O)C2CC3(CC12)OCCCS3 (mixture of isomers) [I-c-19] | 100 | 100 | 100 | 100 | 100 | 50 | 100 | 90 | 90 | 70
CCOC(=O)OC1=C(c2c(CC)cc(C)cc2CC)C(=O)C2CC3(CC12)OCCS3 (mixture of isomers) [I-c-30] | 100 | 80 | 70 | 100 | 40 | 80 | 100 | 60 | 100 | 90
CCc1cc(C)cc(CC)c1C1=C(OC(=O)OC)C2CC3(CC2C1=O)OCCS3 (mixture of isomers) [I-c-31] | 100 | 70 | 90 | 100 | 90 | 60 | 90 | 60 | 0 | 80
CCc1cc(C)cc(CC)c1C1=C(OC(=O)OC)C2CC3(CC2C1=O)OCCCS3 (mixture of isomers) [I-c-32] | 90 | 80 | 80 | 90 | 90 | 100 | 80 | 70 | 100 | 70
CCc1cc(C)cc(CC)c1C1=C(OC(=O)OC(C)C)C2CC3(CC2C1=O)OCCS3 (mixture of isomers) [I-c-33] | 100 | 80 | 80 | 90 | 90 | 90 | 90 | 60 | 100 | 90
COC(=O)OC1=C(c2c(C)cc(C)cc2C)C(=O)C2CC3(CC12)OCC(C)CO3 (mixture of isomers) [I-c-53] | 90 | 100 | 90 | 100 | 80 | 0 | 100 | 60 | 90 | 50
CCOC(=O)OC1=C(c2c(C)cc(C)cc2C)C(=O)C2CC3(COC(C)(C)O3)CC12 (mixture of isomers) [I-c-54] | 90 | 90 | 40 | 80 | 0 | 0 | 90 | 0 | 90 | 40

From US8367873B2, “Phenyl-substituted bicyclooctane-1,3-dione derivatives” (Bayer Cropscience AG, priority 2008, dated 2013)
